Assay results: ChEMBL document CHEMBL5126637, “Discovery of Phenolic Matrix Metalloproteinase Inhibitors by Peptide Microarray for Osteosarcoma Treatment” (J Nat Prod, 2022)
Calls of active or inactive are those of the source. The rule behind the calls is not given here.

Key:
[1] = Toxicity in human HCT-116 cells assessed as cell viability at 2.5 umol/L incubated for 24 hrs by MTT assay relative to control; type: cell-based; details: dose 2.5 µmol/L, read-out: Activity
[2] = Toxicity in human MCF7 cells assessed as cell viability at 2.5 umol/L incubated for 24 hrs by MTT assay relative to control; type: cell-based; details: dose 2.5 µmol/L, read-out: Activity
Collagenase 3 [3] = molecular target: T1, Collagenase 3 (Homo sapiens, UniProt P45452); experiment: Inhibition of MMP13 in human U2OS cells at 5 umol/L by peptide microarray-based fluorescence assay; type: cell-based; details: dose 5.0 µmol/L
[4] = molecular target: T2, Matrix metalloproteinase-9 (Homo sapiens, UniProt P14780); experiment: Inhibition of MMP9 in human U2OS cells at 5 umol/L by peptide microarray-based fluorescence assay; type: cell-based; details: dose 5.0 µmol/L
T2 sequence (P14780 whole entry): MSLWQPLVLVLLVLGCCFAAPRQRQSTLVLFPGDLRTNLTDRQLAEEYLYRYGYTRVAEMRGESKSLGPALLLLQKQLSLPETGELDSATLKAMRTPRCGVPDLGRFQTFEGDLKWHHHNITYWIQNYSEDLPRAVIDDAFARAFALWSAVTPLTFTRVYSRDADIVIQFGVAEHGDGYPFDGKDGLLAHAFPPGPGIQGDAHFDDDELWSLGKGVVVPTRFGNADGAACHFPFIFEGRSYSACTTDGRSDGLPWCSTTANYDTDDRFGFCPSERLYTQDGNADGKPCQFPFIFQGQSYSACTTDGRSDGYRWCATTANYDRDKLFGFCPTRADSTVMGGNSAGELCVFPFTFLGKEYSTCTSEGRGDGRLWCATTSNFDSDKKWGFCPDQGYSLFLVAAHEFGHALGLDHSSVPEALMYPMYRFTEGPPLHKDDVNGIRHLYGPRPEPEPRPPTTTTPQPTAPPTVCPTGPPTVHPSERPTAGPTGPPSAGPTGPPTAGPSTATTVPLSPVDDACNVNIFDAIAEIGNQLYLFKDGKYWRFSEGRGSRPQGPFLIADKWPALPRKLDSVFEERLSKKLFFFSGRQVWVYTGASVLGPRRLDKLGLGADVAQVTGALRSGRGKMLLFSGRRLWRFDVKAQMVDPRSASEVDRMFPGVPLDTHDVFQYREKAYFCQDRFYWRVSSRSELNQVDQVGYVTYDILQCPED

Collagenase 3 [5] = molecular target: T1, Collagenase 3; experiment: Inhibition of MMP13 in human U2OS cells at 1 umol/L by peptide microarray-based fluorescence assay; type: cell-based; details: dose 1.0 µmol/L
Collagenase 3 [6] = molecular target: T1, Collagenase 3; experiment: Inhibition of MMP13 in human U2OS cells by peptide microarray-based fluorescence assay; type: cell-based
U2OS [7] = experiment: Inhibition of cell migration of human U2OS cells at 2.5 umol/L incubated for 24 hrs by would healing assay; type: functional, cell-based; details: dose 2.5 µmol/L
[8] = Toxicity in human NCM460 cells assessed as cell viability at 2.5 umol/L incubated for 24 hrs by MTT assay relative to control; type: cell-based; details: dose 2.5 µmol/L, read-out: Activity
[9] = Toxicity in human HL7702 cells assessed as cell viability at 2.5 umol/L incubated for 24 hrs by MTT assay relative to control; type: cell-based, L02; details: dose 2.5 µmol/L, read-out: Activity
[10] = Toxicity in human HEK293T cells assessed as cell viability at 2.5 umol/L incubated for 24 hrs by MTT assay relative to control; type: cell-based, HEK-293T; details: dose 2.5 µmol/L, read-out: Activity
[11] = Toxicity in human MDA-MB-231 cells assessed as cell viability at 2.5 umol/L incubated for 24 hrs by MTT assay relative to control; type: cell-based; details: dose 2.5 µmol/L, read-out: Activity
[12] = Toxicity in human U2OS cells assessed as cell viability at 2.5 umol/L incubated for 24 hrs by MTT assay relative to control; type: cell-based; details: dose 2.5 µmol/L, read-out: Activity
U2OS [13] = experiment: Antitumor activity against human U2OS cells xenografted in NOD/SCID mouse assessed as inhibition of growth of both primary and metastatic tumors at 34 ug, iv dosed once every 2 days for 6 days successively relative to control; type: functional, organism-based; details: dose 34.0 µg, time 6.0 day
U2OS [14] = experiment: Antitumor activity against human U2OS cells xenografted in NOD/SCID mouse assessed as inhibition of distant organ metastasis at 34 ug, iv dosed once every 2 days for 6 days successively relative to control; type: functional, organism-based; details: dose 34.0 µg, time 6.0 day
U2OS [15] = experiment: Antitumor activity against human U2OS cells xenografted in NOD/SCID mouse assessed as inhibition of tumor growth at 34 ug, iv dosed once every 2 days for 6 days successively relative to control; type: functional; details: dose 34 µg, time 6 day
U2OS [16] = experiment: Antitumor activity against human U2OS cells xenografted in NOD/SCID mouse assessed as time duration with 100% survival with at 34 ug, iv dosed once every 2 days for 6 days successively relative to control; type: functional; details: dose 34 µg, time 6 day
[17] = Toxicity in Kunming mouse assessed as induction of adverse effect or tissue damage in major organs measured after 14 days; details: in vivo, 336 h, time 14 day
[18] = Toxicity in Kunming mouse assessed as effect on blood components measured after 14 days; details: in vivo, 336 h, time 14 day
[19] = Toxicity in Kunming mouse assessed as effect on body weight changes measured after 14 days; details: in vivo, 336 h, time 14 day
[20] = molecular target: T3, Interstitial collagenase (Homo sapiens) (UniProt P03956); experiment: Inhibition of MMP1 in human U2OS cells at 5 umol/L by peptide microarray-based fluorescence assay; type: cell-based; details: dose 5.0 µmol/L
T3 sequence (whole entry): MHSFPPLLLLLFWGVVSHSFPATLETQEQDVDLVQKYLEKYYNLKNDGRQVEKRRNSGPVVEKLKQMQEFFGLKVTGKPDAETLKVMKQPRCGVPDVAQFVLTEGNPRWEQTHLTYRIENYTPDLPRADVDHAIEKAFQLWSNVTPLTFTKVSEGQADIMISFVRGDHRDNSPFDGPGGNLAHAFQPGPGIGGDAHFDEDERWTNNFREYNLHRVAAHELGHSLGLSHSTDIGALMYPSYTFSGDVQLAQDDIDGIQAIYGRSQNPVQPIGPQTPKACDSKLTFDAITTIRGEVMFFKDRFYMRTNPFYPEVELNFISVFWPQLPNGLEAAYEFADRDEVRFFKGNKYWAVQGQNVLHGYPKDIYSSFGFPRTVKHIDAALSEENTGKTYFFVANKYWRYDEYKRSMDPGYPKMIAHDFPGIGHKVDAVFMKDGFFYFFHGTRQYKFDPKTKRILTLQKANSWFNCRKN

[21] = molecular target: T3, Interstitial collagenase (Homo sapiens); experiment: Inhibition of MMP1 in human U2OS cells at 1 umol/L by peptide microarray-based fluorescence assay; type: cell-based; details: dose 1.0 µmol/L
[22] = molecular target: T4, Matrilysin (Homo sapiens) (UniProt P09237); experiment: Inhibition of MMP7 in human U2OS cells at 5 umol/L by peptide microarray-based fluorescence assay; type: cell-based; details: dose 5.0 µmol/L
T4 sequence (whole entry): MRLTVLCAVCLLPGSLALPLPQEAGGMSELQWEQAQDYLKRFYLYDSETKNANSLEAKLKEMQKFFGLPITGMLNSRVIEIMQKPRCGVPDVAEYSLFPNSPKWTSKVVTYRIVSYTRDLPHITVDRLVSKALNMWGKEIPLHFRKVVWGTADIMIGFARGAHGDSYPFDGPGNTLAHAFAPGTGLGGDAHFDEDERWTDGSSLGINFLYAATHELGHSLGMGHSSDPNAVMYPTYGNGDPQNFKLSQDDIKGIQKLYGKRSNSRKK

Stromelysin-1 [23] = molecular target: T5, Stromelysin-1 (Homo sapiens, UniProt P08254); experiment: Inhibition of MMP3 in human U2OS cells at 5 umol/L by peptide microarray-based fluorescence assay; type: cell-based; details: dose 5.0 µmol/L
Target sequence in this assay (P08254 100-477 limits assumed): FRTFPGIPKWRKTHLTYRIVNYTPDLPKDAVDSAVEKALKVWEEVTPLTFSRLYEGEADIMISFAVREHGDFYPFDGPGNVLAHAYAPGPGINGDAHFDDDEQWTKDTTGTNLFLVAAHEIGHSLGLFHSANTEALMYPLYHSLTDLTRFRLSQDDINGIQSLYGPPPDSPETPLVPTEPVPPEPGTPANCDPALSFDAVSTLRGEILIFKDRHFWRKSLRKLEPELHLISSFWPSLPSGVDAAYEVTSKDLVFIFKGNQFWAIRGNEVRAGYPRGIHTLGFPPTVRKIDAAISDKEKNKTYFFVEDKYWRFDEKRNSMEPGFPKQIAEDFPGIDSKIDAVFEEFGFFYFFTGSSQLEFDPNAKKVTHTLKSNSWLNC

[24] = molecular target: T6, 72 kDa type IV collagenase (Homo sapiens, UniProt P08253); experiment: Inhibition of MMP2 in human U2OS cells at 5 umol/L by peptide microarray-based fluorescence assay; type: cell-based; details: dose 5.0 µmol/L
Target sequence in this assay (P08253 110-660 limits assumed): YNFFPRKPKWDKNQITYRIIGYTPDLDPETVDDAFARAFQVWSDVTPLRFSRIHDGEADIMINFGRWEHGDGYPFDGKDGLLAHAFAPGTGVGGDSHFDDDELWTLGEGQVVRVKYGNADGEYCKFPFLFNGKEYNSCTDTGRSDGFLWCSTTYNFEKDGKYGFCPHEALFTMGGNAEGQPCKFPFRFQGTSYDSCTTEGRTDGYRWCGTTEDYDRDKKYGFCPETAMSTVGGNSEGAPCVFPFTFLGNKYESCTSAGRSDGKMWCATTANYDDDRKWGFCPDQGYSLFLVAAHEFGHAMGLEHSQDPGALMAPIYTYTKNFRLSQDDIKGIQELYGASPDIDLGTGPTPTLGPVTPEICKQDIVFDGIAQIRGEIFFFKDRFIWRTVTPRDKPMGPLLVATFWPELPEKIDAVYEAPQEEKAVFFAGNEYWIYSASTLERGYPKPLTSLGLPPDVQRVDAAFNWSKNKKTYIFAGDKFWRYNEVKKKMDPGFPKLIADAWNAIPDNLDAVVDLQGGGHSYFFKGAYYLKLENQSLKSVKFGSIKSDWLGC

[25] = molecular target: T2, Matrix metalloproteinase-9; experiment: Inhibition of MMP9 in human U2OS cells at 1 umol/L by peptide microarray-based fluorescence assay; type: cell-based; details: dose 1.0 µmol/L
[26] = molecular target: T4, Matrilysin (Homo sapiens); experiment: Inhibition of MMP7 in human U2OS cells at 1 umol/L by peptide microarray-based fluorescence assay; type: cell-based; details: dose 1.0 µmol/L
Stromelysin-1 [27] = molecular target: T5, Stromelysin-1; experiment: Inhibition of MMP3 in human U2OS cells at 1 umol/L by peptide microarray-based fluorescence assay; type: cell-based; details: dose 1.0 µmol/L
Target sequence in this assay (P08254 100-477 limits assumed): as the sequence (P08254 100-477 limits assumed) above

[28] = molecular target: T6, 72 kDa type IV collagenase; experiment: Inhibition of MMP2 in human U2OS cells at 1 umol/L by peptide microarray-based fluorescence assay; type: cell-based; details: dose 1.0 µmol/L
Target sequence in this assay (P08253 110-660 limits assumed): as the sequence (P08253 110-660 limits assumed) above

[29] = molecular target: T2, Matrix metalloproteinase-9; experiment: Inhibition of MMP9 in human U2OS cells by peptide microarray-based fluorescence assay; type: cell-based
Matrilysin = molecular target: T7, Matrilysin (Homo sapiens, UniProt P09237); experiment: Inhibition of MMP7 in human U2OS cells by peptide microarray-based fluorescence assay; type: cell-based
T7 sequence (P09237 whole entry): T4 sequence (whole entry)

Stromelysin-1 [30] = molecular target: T5, Stromelysin-1; experiment: Inhibition of MMP3 in human U2OS cells by peptide microarray-based fluorescence assay; type: cell-based
Target sequence in this assay (P08254 whole entry): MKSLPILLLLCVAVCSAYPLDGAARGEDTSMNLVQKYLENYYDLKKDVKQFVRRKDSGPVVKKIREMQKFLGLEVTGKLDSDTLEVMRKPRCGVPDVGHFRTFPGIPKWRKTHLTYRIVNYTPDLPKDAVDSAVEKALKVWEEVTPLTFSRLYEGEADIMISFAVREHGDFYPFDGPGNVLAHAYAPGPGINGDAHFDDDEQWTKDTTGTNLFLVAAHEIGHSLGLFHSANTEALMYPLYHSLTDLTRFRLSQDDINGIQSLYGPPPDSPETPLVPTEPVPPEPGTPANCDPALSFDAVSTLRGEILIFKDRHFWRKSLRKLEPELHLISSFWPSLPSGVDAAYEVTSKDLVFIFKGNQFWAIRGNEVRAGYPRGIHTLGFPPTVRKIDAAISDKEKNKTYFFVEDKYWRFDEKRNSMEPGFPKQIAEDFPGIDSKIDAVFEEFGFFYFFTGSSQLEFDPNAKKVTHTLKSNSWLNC

[31] = molecular target: T6, 72 kDa type IV collagenase; experiment: Inhibition of MMP2 in human U2OS cells by peptide microarray-based fluorescence assay; type: cell-based
Target sequence in this assay (P08253 whole entry): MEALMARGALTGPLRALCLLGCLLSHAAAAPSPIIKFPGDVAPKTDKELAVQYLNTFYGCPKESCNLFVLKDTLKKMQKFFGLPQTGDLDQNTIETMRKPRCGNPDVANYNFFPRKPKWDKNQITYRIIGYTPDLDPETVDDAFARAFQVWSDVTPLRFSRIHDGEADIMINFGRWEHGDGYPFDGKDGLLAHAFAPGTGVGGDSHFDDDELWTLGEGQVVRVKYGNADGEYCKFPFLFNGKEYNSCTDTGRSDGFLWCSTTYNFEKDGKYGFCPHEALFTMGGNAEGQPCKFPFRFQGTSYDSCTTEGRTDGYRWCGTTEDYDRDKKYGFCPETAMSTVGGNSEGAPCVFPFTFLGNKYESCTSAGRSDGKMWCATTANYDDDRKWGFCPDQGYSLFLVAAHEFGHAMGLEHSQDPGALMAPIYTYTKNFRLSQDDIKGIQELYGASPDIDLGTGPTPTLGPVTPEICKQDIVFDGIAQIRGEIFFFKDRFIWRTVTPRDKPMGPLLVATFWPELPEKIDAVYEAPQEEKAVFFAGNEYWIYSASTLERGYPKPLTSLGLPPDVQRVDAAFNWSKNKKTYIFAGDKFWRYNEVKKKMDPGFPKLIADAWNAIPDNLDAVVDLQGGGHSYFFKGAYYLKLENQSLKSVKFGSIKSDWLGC

Interstitial collagenase = molecular target: T8, Interstitial collagenase (Homo sapiens, UniProt P03956); experiment: Inhibition of MMP1 in human U2OS cells by peptide microarray-based fluorescence assay; type: cell-based
T8 sequence (P03956 whole entry): T3 sequence (whole entry)

U2OS [32] = experiment: Antitumor activity against human U2OS cells xenografted in NOD/SCID mouse assessed as inhibition of growth of both primary and metastatic tumors at 18 ug, iv dosed once every 2 days for 6 days successively relative to control; type: functional, organism-based; details: dose 18.0 µg, time 6.0 day
U2OS [33] = experiment: Antitumor activity against human U2OS cells xenografted in NOD/SCID mouse assessed as inhibition of distant organ metastasis at 18 ug, iv dosed once every 2 days for 6 days successively relative to control; type: functional, organism-based; details: dose 18.0 µg, time 6.0 day
U2OS [34] = experiment: Antitumor activity against human U2OS cells xenografted in NOD/SCID mouse assessed as inhibition of tumor growth at 18 ug, iv dosed once every 2 days for 6 days successively relative to control; type: functional; details: dose 18 µg, time 6 day
U2OS [35] = experiment: Antitumor activity against human U2OS cells xenografted in NOD/SCID mouse assessed as time duration with 100% survival with at 18 ug, iv dosed once every 2 days for 6 days successively relative to control; type: functional; details: dose 18 µg, time 6 day
U2OS [36] = experiment: Antitumor activity against human U2OS cells xenografted in NOD/SCID mouse assessed as inhibition of tumor growth at 100 mg/kg, po dosed once every 2 days for 2 weeks relative to control; type: functional; details: 1008 h, time 6 weeks, read-out: TGI
U2OS [37] = experiment: Antitumor activity against human U2OS cells xenografted in NOD/SCID mouse assessed as inhibition of growth of both primary and metastatic tumors at 30 ug, iv dosed once every 2 days for 6 days successively relative to control; type: functional, organism-based; details: dose 30.0 µg, time 6.0 day
U2OS [38] = experiment: Antitumor activity against human U2OS cells xenografted in NOD/SCID mouse assessed as inhibition of distant organ metastasis at 30 ug, iv dosed once every 2 days for 6 days successively relative to control; type: functional, organism-based; details: dose 30.0 µg
U2OS [39] = experiment: Antitumor activity against human U2OS cells xenografted in NOD/SCID mouse assessed as inhibition of tumor growth at 30 ug, iv dosed once every 2 days for 6 days successively relative to control; type: functional; details: dose 30 µg, time 6 day
U2OS [40] = experiment: Antitumor activity against human U2OS cells xenografted in NOD/SCID mouse assessed as time duration with 100% survival with at 30 ug, iv dosed once every 2 days for 6 days successively relative to control; type: functional; details: dose 30 µg, time 6 day

SMILES	viability at 24 h, 2.5 µM [1]	viability at 24 h, 2.5 µM [2]	inhibition (Collagenase 3 [3])	inhibition [4]	inhibition (U2OS [7])	viability at 24 h, 2.5 µM [8]	viability at 24 h, 2.5 µM [9]	viability at 24 h, 2.5 µM [10]	viability at 24 h, 2.5 µM [11]	viability at 24 h, 2.5 µM [12]	Activity [17]	Activity [18]	Activity [19]	inhibition [20]	inhibition [21]	inhibition [22]	inhibition (Stromelysin-1 [23])	inhibition [24]	other results
COc1cc(C2Oc3ccc([C@H]4Oc5cc(O)cc(O)c5C(=O)[C@@H]4O)cc3OC2CO)ccc1O (some centres not stated)	> 90%	> 90%	> 50%	> 50%	Active	> 90%	> 90%	> 90%	> 90%	> 90%	Non-Toxic	Non-Toxic	Non-Toxic						inhibition (Collagenase 3 [5]): Active; IC50 (Collagenase 3 [6]): 250 nM; inhibition (U2OS [13]): Active; inhibition (U2OS [14]): Active; TGI (U2OS [15]): 60%; Survival (U2OS [16]): 43 days
C=CC(C)(C)c1cc(/C=C/C(=O)c2ccc(O)cc2)c(OC)cc1O														> 50%					
CNC(=O)[C@@H](NC(=O)[C@H](CC(C)C)[C@H](O)C(=O)NO)C(C)(C)C															Active				
COc1ccc(-c2cc(=O)c3c(OC)c(OC)c(OC)cc3o2)cc1OC			> 50%											> 50%		> 50%	> 50%	> 50%	
COc1ccc(-c2coc3cc(O[C@@H]4O[C@H](CO)[C@@H](O)[C@H](O)[C@H]4O)ccc3c2=O)cc1				> 50%															
O=C(O)[C@H]1O[C@@H](Oc2cc3oc(-c4ccc(O)cc4)cc(=O)c3c(O)c2O)[C@H](O)[C@@H](O)[C@@H]1O			> 50%	> 50%										> 50%		> 50%		> 50%	
O=C1C[C@@H](c2ccc(O)cc2)Oc2cc(O)ccc21			> 50%	> 50%										> 50%		> 50%	> 50%	> 50%	
O=C(/C=C/c1ccc(O)cc1)c1ccc(O)cc1O [ISOLIQUIRITIGENIN]	> 90%	> 90%	> 50%	> 50%	Active	> 90%	> 90%	> 90%	> 90%	> 90%	Non-Toxic	Non-Toxic	Non-Toxic	> 50%	Active	> 50%	> 50%	> 50%	inhibition (Collagenase 3 [5]): Active; inhibition [25]: Active; inhibition [26]: Active; inhibition (Stromelysin-1 [27]): Active; inhibition [28]: Active; IC50 (Collagenase 3 [6]): 14 nM; IC50 [29]: 10 nM; IC50 (Matrilysin): 8 nM; IC50 (Stromelysin-1 [30]): 81 nM; IC50 [31]: 10 nM; IC50 (Interstitial collagenase): 16 nM; inhibition (U2OS [32]): Active; inhibition (U2OS [33]): Active; TGI (U2OS [34]): 80%; Survival (U2OS [35]): 70 days; inhibition in vivo at 100 mg/kg (U2OS [36]): 72%
O=c1c2cc(O)c(O)cc2oc2cc(O)c([C@@H]3O[C@H](CO)[C@@H](O)[C@H](O)[C@H]3O)c(O)c12 [MANGIFERIN]	> 90%	> 90%		> 50%	Active	> 90%	> 90%	> 90%	> 90%	> 90%	Non-Toxic	Non-Toxic	Non-Toxic	> 50%	Active				inhibition [25]: Active; IC50 [29]: 250 nM; inhibition (U2OS [37]): Active; inhibition (U2OS [38]): Active; TGI (U2OS [39]): 35%; Survival (U2OS [40]): 41 days
